Test: xn = mol fraction of the nth substance listed
Details: 101 kPa, Liquid, Capillary tube (Ostwald / Ubbelohde) method

O [water] + CCN(CC)CC
x2 = 0
Details | viscosity [mPa·s]
283.15 K | 1.306
286.15 K | 1.206
288.15 K | 1.144
290.15 K | 1.085
291.15 K | 1.058
291.35 K | 1.053

CCN(CC)CC [triethylamine] + O
viscosity [mPa·s]
Details | x1 = 0.019 | x1 = 0.042 | x1 = 0.077 | x1 = 0.106 | x1 = 0.151 | x1 = 0.21 | x1 = 0.293 | x1 = 0.415 | x1 = 0.615 | x1 = 1
283.15 K | 2.52 | 4.075 | 5.547 | 6.629 | 6.651 | 5.635 | 4.242 | 2.821 | 1.84 | 0.4275
286.15 K | 2.211 | 3.512 | 4.761 | 5.476 | 5.497 | 4.801 | 3.679 | 2.511 | 1.531 | 0.414
288.15 K | 2.033 | 3.199 | 4.242 | 4.748 | 4.769 | 4.302 | 3.366 | 2.333 | 1.354 | 0.4051
290.15 K | 1.875 | 2.948 | 3.764 | 4.07 | 4.092 | 3.85 | 3.115 | 2.175 | 1.195 | 0.3961
291.15 K | 1.804 | 2.846 | 3.53 | 3.751 | 3.773 | 3.644 | 3.013 | 2.104 | 1.124 | 0.3917
291.35 K | 1.792 | 2.831 | 3.482 | 3.677 | 3.699 | 3.611 | 2.998 | 2.093 | 1.113 | 0.391

Reference: the NIST ThermoML archive (doi:10.1016/j.fluid.2009.01.004)
